Data from patent publication US4950647A, “T cell immunopotentiator” (Nucleic Acid Research Institute, priority 1988, dated 1990).

Tested on: human lymphocytes (peripheral blood mononuclear cells)
Assay: Phytohemagglutinin (PHA) induced lymphocyte proliferation
Type: cell-based
Method: Peripheral blood mononuclear cells were isolated from heparinized peripheral blood of normal healthy donors as described in Sharma, B. and S. Gupta, "Antigen-specific primary cytotoxic T lymphocyte response in acquired immune deficiency syndrome (AIDS) and AIDS related complex", Clin. Exp. Immunol., 62:296, 1985. Briefly, blood was diluted 1:1 with Hanks balanced salt solution (HBSS). Peripheral blood mononuclear cells were separated on a Ficoll-Hypaque gradient. The peripheral blood mononuclear cells recovered from the interface were washed three times with HBSS and resuspended in RPMI-1640 containing 100 U/ml penicillin, 100 μg/ml streptomycin 2mM L-glutamine (GIBCO, Grand Island, N.Y.), and 10% heat-inactivated pooled A serum (Irvine Scientific, Irvine, Calif.), hereafter referred as complete medium (CM).
The ability of the compound 6-amino-(2-deoxy-α-D-erythropentofuranosyl)-imidazo[4,5,-C]pyridin-4-one to modulate lymphocyte response to plant mitogens was determined by the modified procedure of Sharma, B., O. Kohashi, M. R. Mickey, and P. T. Terasaki, "Effect of water soluble adjuvants on in vitro lymphocyte immunization", Cancer Res. 35:666, 1975. Peripheral blood mononuclear cells were cultured for 72-96 hr with phytohemagglutinin (Difco, Detroit, Mich.), Concanavalin A (Calbiochem, Calif.) or Pokeweed mitogen (GIBCO, Grand Island, N.Y.) in the presence and absence of 6-amino-(2-deoxy-α-D-erythro-pentofuranosyl)-imidazo[4,5,-C]pyridin- 4-one. The culture were set up in quadruplicate and pulsed with [^3 H]-thymidine for 16 hr and the [^3 H] thymidine incorporation was determined.
Lymphocytes from different donors where incubated with various concentration of phytohemagglutinin in absence and presence of 6-amino-(2-deoxy-α-D-erythro-pentofuranoxyl)imidazo-[4,5,-C]pyridin- 4-one.
[…] Lymphocyte proliferation was determined by ^3 H-thymidine incorporation.

[1] = donor 2, PHA 0.25 mg/0.2 ml, compound (0.1)
[2] = donor 2, PHA 1.0 mg/0.2 ml, compound (0.05)
[3] = donor 2, PHA 4.0 mg/0.2 ml, compound (0.038)
[4] = donor 3, PHA 0.25 mg/0.2 ml, compound (0.4)
[5] = donor 3, PHA 1.0 mg/0.2 ml, compound (0.2)
[6] = donor 3, PHA 1.0 mg/0.2 ml, compound (0.4)
[7] = donor 3, PHA 4.0 mg/0.2 ml, compound (0.2)
[8] = donor 3, PHA 4.0 mg/0.2 ml, compound (0.4)
[9] = donor 4, PHA 0.25 mg/0.2 ml, compound (0.4)
[10] = donor 4, PHA 1.0 mg/0.2 ml, compound (0.05)
[11] = donor 4, PHA 1.0 mg/0.2 ml, compound (0.4)
[12] = donor 4, PHA 4.0 mg/0.2 ml, compound (0.4)
[13] = donor 5, PHA 0.5 mg/0.2 ml, compound (0.05)
[14] = donor 5, PHA 1.0 mg/0.2 ml, compound (0.2)
[15] = donor 5, PHA 4.0 mg/0.2 ml, compound (0.2)
[16] = donor 6, PHA 0.5 mg/0.2 ml, compound (0.05)
[17] = donor 7, PHA 0.125 mg/0.2 ml, compound (0.4)
[18] = donor 7, PHA 0.125 mg/0.2 ml, compound (1.0)

Nc1cc2c(ncn2[C@@H]2C[C@H](O)[C@@H](CO)O2)c(O)n1 [Test Compound, 6-amino-1-(2-deoxy-α-D-erythro-pentofuranosyl)imidazo[4,5-C]-pyridin-4-one]
activity in augmenting phytohemagglutinin response compared with interleukin-2 (Table III): equals that of interleukin-2 | potentiation of lymphocyte response to phytohemagglutinin (all the 5 donors examined): striking potentiation | 3H-thymidine incorporation in PHA-stimulated cultures [1]: 56362 ± 8650 Counts per minute | % Potentiation [1]: 294% | 3H-thymidine incorporation in PHA-stimulated cultures [2]: 110155 ± 5101 Counts per minute | % Potentiation [2]: 41% | 3H-thymidine incorporation in PHA-stimulated cultures [3]: 127102 ± 3001 Counts per minute | % Potentiation [3]: 53% | 3H-thymidine incorporation in PHA-stimulated cultures [4]: 34646 ± 6344 Counts per minute | % Potentiation [4]: 1074% | 3H-thymidine incorporation in PHA-stimulated cultures [5]: 77757 ± 18381 Counts per minute | % Potentiation [5]: 295% | 3H-thymidine incorporation in PHA-stimulated cultures [6]: 61653 ± 12029 Counts per minute | % Potentiation [6]: 213% | 3H-thymidine incorporation in PHA-stimulated cultures [7]: 88518 ± 7387 Counts per minute | % Potentiation [7]: 144% | 3H-thymidine incorporation in PHA-stimulated cultures [8]: 97950 ± 6240 Counts per minute | % Potentiation [8]: 170% | 3H-thymidine incorporation in PHA-stimulated cultures [9]: 28765 ± 4475 Counts per minute | % Potentiation [9]: 1171% | 3H-thymidine incorporation in PHA-stimulated cultures [10]: 50131 ± 4674 Counts per minute | % Potentiation [10]: 88% | 3H-thymidine incorporation in PHA-stimulated cultures [11]: 91669 ± 7462 Counts per minute | % Potentiation [11]: 244% | 3H-thymidine incorporation in PHA-stimulated cultures [12]: 119811 ± 2608 Counts per minute | % Potentiation [12]: 91% | 3H-thymidine incorporation in PHA-stimulated cultures [13]: 66109 ± 2263 Counts per minute | % Potentiation [13]: 71% | 3H-thymidine incorporation in PHA-stimulated cultures [14]: 79690 ± 3113 Counts per minute | % Potentiation [14]: 79% | 3H-thymidine incorporation in PHA-stimulated cultures [15]: 93966 ± 6505 Counts per minute | % Potentiation [15]: 103% | 3H-thymidine incorporation in PHA-stimulated cultures [16]: 16156 ± 3600 Counts per minute | % Potentiation [16]: 110% | 3H-thymidine incorporation in PHA-stimulated cultures [17]: 25657 ± 2488 Counts per minute | % Potentiation [17]: 353% | 3H-thymidine incorporation in PHA-stimulated cultures [18]: 23582 ± 3903 Counts per minute | % Potentiation [18]: 317%
